Assay: mn = molality of the nth substance listed, in mol/kg
Details: for surface tension liquid-gas: Ring tensiometer; for electrical conductivity: 100 kPa, Liquid, Alternating current cell with electrodes

CCCCCCCC[NH+](CCO)CC(C)O.[Cl-] (centres undefined) + O
Details	electrical conductivity [S/m]	surface tension liquid-gas [mN/m]
293.15 K, m1 = 1.867e-05	–	62.99
293.15 K, m1 = 1.87e-05	0.00057	–
293.15 K, m1 = 3.733e-05	–	56.87
293.15 K, m1 = 3.99e-05	0.000652	–
293.15 K, m1 = 6.12e-05	0.000733	–
293.15 K, m1 = 8.25e-05	0.000815	–
293.15 K, m1 = 9.334e-05	–	47.51
293.15 K, m1 = 0.0001038	0.000896	–
293.15 K, m1 = 0.0001251	0.000978	–
293.15 K, m1 = 0.0001464	0.00106	–
293.15 K, m1 = 0.0001676	0.00114	–
293.15 K, m1 = 0.0001867	–	40.52
293.15 K, m1 = 0.0001889	0.00122	–
293.15 K, m1 = 0.0002102	0.0013	–
293.15 K, m1 = 0.0002315	0.00138	–
293.15 K, m1 = 0.0002528	0.00147	–
293.15 K, m1 = 0.000274	0.00155	–
293.15 K, m1 = 0.00028	–	36.28
293.15 K, m1 = 0.0002953	0.00163	–
293.15 K, m1 = 0.0003166	0.00171	–
293.15 K, m1 = 0.0003379	0.00179	–
293.15 K, m1 = 0.0003592	0.00187	–
293.15 K, m1 = 0.0003734	–	33.31
293.15 K, m1 = 0.0003805	0.00196	–
293.15 K, m1 = 0.0004017	0.00204	–
293.15 K, m1 = 0.000423	0.00212	–
293.15 K, m1 = 0.0004436	–	31.33
293.15 K, m1 = 0.0004443	0.0022	–
293.15 K, m1 = 0.0004687	0.00226	–
293.15 K, m1 = 0.0004932	0.00233	–
293.15 K, m1 = 0.0005177	0.00239	–
293.15 K, m1 = 0.0005421	0.00246	–
293.15 K, m1 = 0.0005666	0.00252	–
293.15 K, m1 = 0.000591	0.00259	–
293.15 K, m1 = 0.0006155	0.00266	–
293.15 K, m1 = 0.0006399	0.00272	–
293.15 K, m1 = 0.0006644	0.00279	–
293.15 K, m1 = 0.0006888	0.00285	–
293.15 K, m1 = 0.0007133	0.00292	–
293.15 K, m1 = 0.0007378	0.00298	–
293.15 K, m1 = 0.0007622	0.00305	–
293.15 K, m1 = 0.0007867	0.00312	–
293.15 K, m1 = 0.0008111	0.00318	–
293.15 K, m1 = 0.0008356	0.00325	–
293.15 K, m1 = 0.00086	0.00331	–
293.15 K, m1 = 0.0008845	0.00338	–
293.15 K, m1 = 0.0009089	0.00345	–
293.15 K, m1 = 0.0009334	0.00352	30.74
293.15 K, m1 = 0.001867	–	30.15
293.15 K, m1 = 0.0028	–	29.89
293.15 K, m1 = 0.003733	–	30
298.15 K, m1 = 1.867e-05	–	58.01
298.15 K, m1 = 1.87e-05	0.00071	–
298.15 K, m1 = 3.733e-05	–	52.03
298.15 K, m1 = 3.79e-05	0.000793	–
298.15 K, m1 = 5.71e-05	0.000877	–
298.15 K, m1 = 7.64e-05	0.00096	–
298.15 K, m1 = 9.334e-05	–	43.52
298.15 K, m1 = 9.56e-05	0.00104	–
298.15 K, m1 = 0.0001148	0.00113	–
298.15 K, m1 = 0.000134	0.00121	–
298.15 K, m1 = 0.0001533	0.00129	–
298.15 K, m1 = 0.0001725	0.00138	–
298.15 K, m1 = 0.0001867	–	36.81
298.15 K, m1 = 0.0001917	0.00146	–
298.15 K, m1 = 0.0002109	0.00154	–
298.15 K, m1 = 0.0002302	0.00163	–
298.15 K, m1 = 0.0002494	0.00171	–
298.15 K, m1 = 0.0002686	0.00179	–
298.15 K, m1 = 0.00028	–	33.44
298.15 K, m1 = 0.0002879	0.00188	–
298.15 K, m1 = 0.0003071	0.00196	–
298.15 K, m1 = 0.0003263	0.00204	–
298.15 K, m1 = 0.0003455	0.00213	–
298.15 K, m1 = 0.0003648	0.00221	–
298.15 K, m1 = 0.000384	0.0023	–
298.15 K, m1 = 0.0004032	0.00238	–
298.15 K, m1 = 0.0004088	–	30.57
298.15 K, m1 = 0.0004364	0.00249	–
298.15 K, m1 = 0.0004695	0.0026	–
298.15 K, m1 = 0.0005026	0.00271	–
298.15 K, m1 = 0.0005358	0.00282	–
298.15 K, m1 = 0.0005689	0.00294	–
298.15 K, m1 = 0.000602	0.00305	–
298.15 K, m1 = 0.0006352	0.00316	–
298.15 K, m1 = 0.0006683	0.00327	–
298.15 K, m1 = 0.0007014	0.00338	–
298.15 K, m1 = 0.0007346	0.00349	–
298.15 K, m1 = 0.0007677	0.00361	–
298.15 K, m1 = 0.0008009	0.00372	–
298.15 K, m1 = 0.000834	0.00383	–
298.15 K, m1 = 0.0008671	0.00394	–
298.15 K, m1 = 0.0009003	0.00405	–
298.15 K, m1 = 0.0009334	0.00417	29.9
298.15 K, m1 = 0.001867	–	29.43
298.15 K, m1 = 0.0028	–	29
298.15 K, m1 = 0.003733	–	28.91
303.15 K, m1 = 1.867e-05	–	53.53
303.15 K, m1 = 1.87e-05	0.00091	–
303.15 K, m1 = 3.73e-05	0.00101	–
303.15 K, m1 = 3.733e-05	–	47.58
303.15 K, m1 = 5.6e-05	0.0011	–
303.15 K, m1 = 7.47e-05	0.0012	–
303.15 K, m1 = 9.33e-05	0.00129	–
303.15 K, m1 = 9.334e-05	–	40.08
303.15 K, m1 = 0.000112	0.00139	–
303.15 K, m1 = 0.0001307	0.00149	–
303.15 K, m1 = 0.0001493	0.00158	–
303.15 K, m1 = 0.000168	0.00168	–
303.15 K, m1 = 0.0001867	0.00177	34.17
303.15 K, m1 = 0.0002053	0.00187	–
303.15 K, m1 = 0.000224	0.00197	–
303.15 K, m1 = 0.0002427	0.00206	–
303.15 K, m1 = 0.0002614	0.00216	–
303.15 K, m1 = 0.00028	0.00225	31.17
303.15 K, m1 = 0.0002987	0.00235	–
303.15 K, m1 = 0.0003174	0.00245	–
303.15 K, m1 = 0.000336	0.00254	–
303.15 K, m1 = 0.0003472	–	29.47
303.15 K, m1 = 0.0003547	0.00264	–
303.15 K, m1 = 0.0003734	0.00273	–
303.15 K, m1 = 0.000392	0.00283	–
303.15 K, m1 = 0.0004166	0.00292	–
303.15 K, m1 = 0.0004412	0.00302	–
303.15 K, m1 = 0.000448	–	29.31
303.15 K, m1 = 0.0004658	0.00311	–
303.15 K, m1 = 0.0004905	0.00321	–
303.15 K, m1 = 0.0005151	0.0033	–
303.15 K, m1 = 0.0005397	0.0034	–
303.15 K, m1 = 0.0005643	0.00349	–
303.15 K, m1 = 0.0005889	0.00359	–
303.15 K, m1 = 0.0006135	0.00368	–
303.15 K, m1 = 0.0006381	0.00378	–
303.15 K, m1 = 0.0006627	0.00387	–
303.15 K, m1 = 0.0006873	0.00397	–
303.15 K, m1 = 0.0007119	0.00406	–
303.15 K, m1 = 0.0007365	0.00416	–
303.15 K, m1 = 0.0007611	0.00425	–
303.15 K, m1 = 0.0007857	0.00435	–
303.15 K, m1 = 0.0008104	0.00444	–
303.15 K, m1 = 0.000835	0.00454	–
303.15 K, m1 = 0.0008596	0.00463	–
303.15 K, m1 = 0.0008842	0.00473	–
303.15 K, m1 = 0.0009088	0.00482	–
303.15 K, m1 = 0.0009334	0.00492	28.79
303.15 K, m1 = 0.001867	–	28.54
303.15 K, m1 = 0.0028	–	28.22
303.15 K, m1 = 0.003733	–	28.02
308.15 K, m1 = 1.867e-05	–	51.25
308.15 K, m1 = 1.87e-05	0.00111	–
308.15 K, m1 = 3.733e-05	–	45.75
308.15 K, m1 = 4.28e-05	0.00126	–
308.15 K, m1 = 6.7e-05	0.00141	–
308.15 K, m1 = 9.11e-05	0.00156	–
308.15 K, m1 = 9.334e-05	–	38.42
308.15 K, m1 = 0.0001152	0.00171	–
308.15 K, m1 = 0.0001394	0.00186	–
308.15 K, m1 = 0.0001635	0.00201	–
308.15 K, m1 = 0.0001867	–	32.93
308.15 K, m1 = 0.0001877	0.00216	–
308.15 K, m1 = 0.0002118	0.00231	–
308.15 K, m1 = 0.000236	0.00246	–
308.15 K, m1 = 0.0002601	0.00261	–
308.15 K, m1 = 0.0002842	0.00276	–
308.15 K, m1 = 0.0002949	–	29.72
308.15 K, m1 = 0.0003084	0.00291	–
308.15 K, m1 = 0.0003325	0.00306	–
308.15 K, m1 = 0.0003472	–	28.63
308.15 K, m1 = 0.0003567	0.00321	–
308.15 K, m1 = 0.0003808	0.00336	28.46
308.15 K, m1 = 0.0004099	0.00348	–
308.15 K, m1 = 0.000439	0.0036	–
308.15 K, m1 = 0.0004681	0.00373	–
308.15 K, m1 = 0.0004972	0.00385	–
308.15 K, m1 = 0.0005262	0.00397	–
308.15 K, m1 = 0.0005553	0.0041	–
308.15 K, m1 = 0.0005844	0.00422	–
308.15 K, m1 = 0.0006135	0.00434	–
308.15 K, m1 = 0.0006426	0.00447	–
308.15 K, m1 = 0.0006716	0.00459	–
308.15 K, m1 = 0.0007007	0.00471	–
308.15 K, m1 = 0.0007298	0.00483	–
308.15 K, m1 = 0.0007589	0.00496	–
308.15 K, m1 = 0.000788	0.00508	–
308.15 K, m1 = 0.0008171	0.0052	–
308.15 K, m1 = 0.0008461	0.00533	–
308.15 K, m1 = 0.0008752	0.00545	–
308.15 K, m1 = 0.0009043	0.00557	–
308.15 K, m1 = 0.0009334	0.0057	27.95
308.15 K, m1 = 0.001867	–	27.78
308.15 K, m1 = 0.0028	–	27.44
308.15 K, m1 = 0.003733	–	27.36

From the NIST ThermoML archive (doi:10.1021/acs.jced.7b00347)
